Experiments:
[1] = tested on: human placental villous explants (villous cytotrophoblasts); assay: Human villous explant culture: trophoblast proliferation and viability (H&E, PCNA, Ki-67, glucose utilization); type: cell-based; settings: for detachment of trophoblast layers from villous stromal core / number of villous cytotrophoblasts: 96 h culture, H&E, TrkB ectodomain 10 μg/ml, K252a 1,000 nM, K252b 1,000 nM
Description: (§1) Preparation and cultivation of human villous explants of first trimester placentas were performed as described (Non-patent Document 13). Briefly, human placental villi at 6-8 weeks of gestation were aseptically dissected to remove decidual tissue and fetal membranes. Small pieces of placental villi (8 mg wet weight) were dissected under a stereomicroscope (Leica Microsystems, Tokyo, Japan). Each villous piece was put on Millicell-CM culture dish inserts (12-mm diameter) (Millipore, Bedford, Mass.) that were precoated with 200 μl of undiluted Matrigel Growth Factor Reduced (BD Bioscience pharmingen) and placed in 24-well culture plates. The villous pieces were covered with 150 μl of culture medium (DMEM/F12 without serum supplemented with 100 U/ml penicillin, 100 μg/ml streptomycin, and 0.25 μg/ml ascorbic acid, pH 7.4) (Invitrogen, Carlsbad, Calif.), whereas the bottom chamber contained 500 μl of culture medium. […] Culture media were changed every 48 h and collected for measurement of glucose concentration.
(§2) At the end of cultures, some villous explants including EVT outgrowth were subjected to RNA extraction for real-time RT-PCR to quantify the transcript levels of human leukocyte antigen-G (HLA-G). Glucose utilization by the villous explants was calculated from the difference between glucose concentration in fresh medium and that in the conditioned medium after 48 h of culture using an enzymatic assay (Mitsubishi BCL, Tokyo, Japan). The results were expressed as mg per 0.1 g wet weight tissue/48 h.
(§3) In some experiments, morphological changes in villous explants were evaluated by hematoxylin and eosin (H&E) staining. Furthermore, the activity of cellular proliferation was determined by immunohistochemical detection of proliferating cell nuclear antigen (PCNA) and Ki-67 antigens. To measure the progression of apoptosis, some villous explants were subjected to a quantitative caspase-3/7 enzyme assay as described (Non-patent Documents 12, 16). Apoptosis in villous explants was also assayed by detecting DNA fragmentation using in situ terminal deoxynucleotidyl transferase-mediated […] nick end-labeling (TUNEL) (Non-patent Document 17).
(§4) To localize BDNF and TrkB, BDNF and TrkB immunostaining in placental villi and villous tissues of ectopic pregnancy were performed as described (Non-patent Document 11). BDNF antigen and TrkB antigen were detected by rabbit anti-BDNF polyclonal antibody (Chemicon, Temecula, Calif.) and chicken anti-TrkB polyclonal antibody (Promega, Madison, Wis.) recognizing full length TrkB were used, respectively, after dilution to 1:100. Some slides were subjected to proliferating cell nuclear antigen (PCNA) or Ki-67 immunostaining to evaluate cellular proliferation, whereas cytokeratin and HLA-G immunostaining were performed to identify trophoblasts and extravillous trophoblasts (EVTs) in the xenotransplanted human villi, respectively. After deparaffinization and dehydration, antigen retrieval was performed by autoclave heating at 121° C. for 10 min (PCNA and Ki-67), treatment with 0.4 mg/ml proteinase K (Sigma, St. Louis, Mo.) at room temperature for 5 min (cytokeratin), or microwave heating in 10 mM citrate buffer (pH 6) for 3×3 min (HLA-G). Endogenous peroxidase activities were quenched with 0.3% […] in methanol for 30 min. […]

[2] = tested on: human placental villous explants (villous trophoblasts); assay: Human villous explant culture: apoptosis (TUNEL, caspase-3/7 enzyme assay); type: cell-based; settings: 96 h culture; for proportion of TUNEL-positive nuclei: TrkB ectodomain 10 μg/ml, K252a 1,000 nM, K252b 1,000 nM; for caspase-3/7 activities, increase relative to controls: villous explants, 3% O2
Description: as §1, §3

[3] = tested on: human placental villous explants (extravillous trophoblasts); assay: Human villous explant culture: EVT outgrowth and HLA-G transcript levels (trophoblast differentiation); type: cell-based; settings: 96 h culture; for EVT outgrowth: villous explants 6-8 weeks of gestation, 3% O2, different doses; for transcript levels of HLA-G: villous explants, 3% O2, real-time RT-PCR
Description: as §1, §2
(§5) Quantitative real-time RT-PCR of TrkB and human leukocyte antigen-G (HLA-G) transcript levels in placental villi and mouse kidneys with xenotransplanted human villi was performed using a SmartCycler (Takara, Tokyo, Japan) with primers and hybridization probes for TrkB and β-actin as described (Non-patent Document 32). Primers for TrkB corresponded to the catalytic kinase domain of the receptor to avoid the amplification of truncated isoforms (Non-patent Document 33). Fragmented TrkB was specifically amplified using a reported primer (Non-patent Document 37). Validated Taqman gene expression assay was used to quantify the expression of HLA-G (Applied Biosystems, Forster City, Calif.). Data were normalized based on β-actin transcript levels.

[4] = tested on: human placental villi transplanted under the kidney capsule; assay: Xenotransplantation of human villi into SCID mice as in vivo model of ectopic pregnancy
Description: (§6) To explore the roles of endogenous TrkB signaling in human ectopic pregnancy, xenotransplantation of human placental villi at 7-8 weeks of gestation into SCID mice (C.B-17/Icr-scid/scidJcl) (CLEA Japan, Tokyo, Japan) was used as an in vivo model. The care and use of animals was approved by the Animal Research Committee, Akita University School of Medicine. In preparation of grafts, small pieces of the placental villi were dissected as described above and kept in ice-cold PBS until transplantation. After anesthetizing of the SCID mice at 8-11 weeks of age with tribromoethanol (14-20 mg/kg) (Sigma, St. Louis, Mo.), the left and right kidneys were sequentially exteriorized. A 0.5 mm incision was then made in each kidney capsule, and a piece of the placental villi (5 mg wet weight) was transplanted underneath the capsule using a blunt tip tweezers. Treatment was initiated in animals after 1 week of transplantation when murine vascular networks were known to appear in areas of cytotrophoblast invasion (Non-patent Document 18). Animals weighted between 19-22 g on day of treatment. Intraperitoneal (ip) administration of K252a dissolved in physiological saline (500 μg/kg) was performed daily. For negative controls, treatment with K252b (500 μg/kg) or vehicle alone was used. The doses of K252a and K252b chosen for these experiments were based on previous studies (Non-patent Documents 12, 19). Some animals were treated daily with methotrexate (ip; 1 mg/kg) (Sigma) corresponding to the therapeutic dose used for medical treatment of ectopic pregnancy (Non-patent Document 3). The mice were killed after 7 days of treatment. Kidneys with villi transplants were excised and homogenized to measure hCG-β levels and caspase-3/7 activities. To identify trophoblasts in the kidney, cytokeratin, a marker for trophoblasts (Non-patent Document 20), was detected by immunohistochemistry. In addition to H&E staining, in vivo cell proliferation and apoptosis in the excised samples were evaluated by immunostaining of PCNA and Ki-67, and the TUNEL assay, respectively.
as §5, §4

[5] = Side effects and body weight of treated SCID mice; type: in vivo
Description: as §6, with “Animals weighted between 19-22 g on day of treatment. Intraperitoneal (ip) administration of K252a dissolved in physiological saline (500 μg/kg) was performed daily. For negative controls, treatment with K252b (500 μg/kg) or vehicle alone was used. The doses of K252a and K252b chosen for these experiments were based on previous studies (Non-patent Documents 12, 19). Some animals were treated daily with methotrexate (ip; 1 mg/kg) (Sigma) corresponding to the therapeutic dose used for medical treatment of ectopic pregnancy (Non-patent Document 3). The mice were killed after 7 days of treatment. Kidneys with villi transplants were excised and homogenized to measure hCG-β levels and caspase-3/7 activities.” left out

[6] = K252a 500 μg/kg ip daily for 7 days

For `COC(=O)[C@@]1(O)C[C@H]2O[C@]1(C)n1c3ccccc3c3c4c(c5c6ccccc6n2c5c31)C(=O)NC4` [K252a], the “detachment of trophoblast layers from villous stromal core” value [1] was “induced partial detachment of trophoblast layers”, the “number of villous cytotrophoblasts” value [1] was “decreased the number of villous cytotrophoblasts” and the inhibition at 1 µM ([1]; Homo sapiens, 48 h, read-out: glucose utilization by villous explants, inhibition) was > 94%. The “proportion of TUNEL-positive nuclei” value [2] was “increased the proportion of TUNEL-positive nuclei”, the “caspase-3/7 activities, increase relative to controls” value [2] was “Increases in caspase-3/7 activities” and the EVT outgrowth [3] was “suppressed EVT outgrowth in a dose-dependent manner”. For the same molecule, the “transcript levels of HLA-G” value [3] was “decreases in the transcript levels of HLA-G”, the “TUNEL-positive nuclei in cytotrophoblasts” value [4, 6] was “increases in TUNEL-positive nuclei” and the “activation of caspase-3/7 within the xenografts, increase relative to vehicle” value [4, 6] was 4.1 fold. The “cell proliferation by PCNA and Ki-67 staining” value [4, 6] was “suppression of cell proliferation”, the “transcript levels for HLA-G in kidney with transplanted villi” value [4, 6] was “major decreases in transcript levels for HLA-G” and the “decrease in hCG-β levels in tissue homogenates” value ([4]; K252a 500 μg/kg ip daily for 7 days, RIA) was 73.3%. For the same molecule, the “cell numbers of invading EVTs and cytotrophoblasts in villous cores” value ([4]; K252a 500 μg/kg ip daily for 7 days, cytokeratin, HLA-G, H&E staining) was “decreases in cell numbers of invading EVTs and cytotrophoblasts”, the body weight ([5]; 500 μg/kg ip daily, during studies, mean±SEM) was 19.27 ± 1.03 g and the body weight changes ([5]; K252a 500 μg/kg ip daily) was “no body weight changes”.
For `C[C@]12O[C@H](C[C@]1(O)C(=O)O)n1c3ccccc3c3c4c(c5c6ccccc6n2c5c31)CNC4=O` [K252b], the “all parameters tested in the xenotransplant model” value ([4]; K252b 500 μg/kg ip daily for 7 days) was “ineffective”.
In the case of `CN(Cc1cnc2nc(N)nc(N)c2n1)c1ccc(C(=O)N[C@@H](CCC(=O)O)C(=O)O)cc1` [MTX, methotrexate], the “trophoblast differentiation, proliferation, and survival” value ([4]; MTX 1 mg/kg ip daily for 7 days) is reported as “did not inhibit”.
With “TrkB ectodomain: soluble ectodomain of TrkB (R&D Systems), binds BDNF and competingly suppresses BDNF/TrkB binding” the “detachment of trophoblast layers from villous stromal core” value [1] was “induced partial detachment of trophoblast layers”, the “number of villous cytotrophoblasts” value [1] was “decreased the number of villous cytotrophoblasts” and the “proportion of TUNEL-positive nuclei” value [2] was “increased the proportion of TUNEL-positive nuclei”. The “caspase-3/7 activities, increase relative to controls” value [2] was “Increases in caspase-3/7 activities”, the EVT outgrowth [3] was “suppressed EVT outgrowth in a dose-dependent manner” and the “transcript levels of HLA-G” value [3] was “decreases in the transcript levels of HLA-G”.

From US20140179677A1, “THERAPEUTIC AGENT FOR ECTOPIC PREGNANCY” (AKITA UNIVERSITY, priority 2010, published 2014)
